Assays:
barley (cultivar Lawina) = experiment: Phytotoxicity greenhouse test, spray of carboxylic acid amide on barley; type: in vivo; conditions: 3-4 leaf stage, spray 200 l/ha comprising 1500 ml carboxylic acid amide/ha, visual score vs plants treated with water only
Method: Phytotoxicity in accordance with the present invention is determined by an assay where a spray comprising water (aqua dest.) and carboxylic acid amide (200 l/ha comprising 1500 ml carboxylic acid amide/ha) is prepared and applied on plants of barley (cultivar […]) being in 3-4 leaf stage at a water application rate of 1.5 l/ha. The experimental period lasts for 10 days. During this time, the experimental plants receive optimum watering, with nutrients being supplied via the water used for watering. The phytotoxicity is evaluated by awarding scores to the treated plants in comparison to untreated plants, i.e. treated with water only. The evaluation scale ranges from 0% to 100% phytotoxicity. The evaluation is done by visual examination. 0% phytotoxicity means that there are no differences between treated and untreated plants. Thus, no phytotoxicity in accordance with the present invention means that the treated plants to not have plant injury and there is no difference between treated and untreated plants. Low phytotoxicity in accordance with the present invention means that only 1 to 10% of the treated plants have plant injury as compared to untreated plants. For the greenhouse tests, barley (cultivar […]) was sown and cultivated in standard soil (type P, fine) for 3 weeks. The spray mixtures were applied with a minicompressor (4 times) in a laboratory fume hood on plants being in 3-4 leaf stage. A spray comprising water (aqua dest.) and dibutylpropionamide from Example 1 (200 l/ha comprising 1500 ml dibutylpropionamide/ha) was prepared and applied at a water application rate of 1.5 l/ha. The experimental period lasted for 10 days. During this time, the experimental plants received optimum watering, with nutrients being supplied via the water used for watering. The phytotoxicity was evaluated by assessing scores to the treated plants in comparison to untreated plants, i.e. treated with water only (see Table 1). The evaluation scale ranges from 0% to 100% phytotoxicity. The evaluation was done by visual examination. Thus, 0% phytotoxicity means that there were no differences between treated and untreated plants. […] A rating of 0% phytotoxicity means no crop injury. […] A rating of 100% means the complete destruction of all plants. […] Thus, less than 10% of the plants were affected when said carboxylic acid amides were applied on the plants in a dose of 1500 ml/ha. […] Thus, carboxylic acid amides wherein the N,N-alkyl groups are having more than two carbon atoms seem to have no or almost no phytotoxic effect on the plants and can therefore be used in agricultural compositions for reducing the phytotoxicity in such compositions.

[1] = Determination of the max. solubility of fungicides in carboxylic acid amides; type: physicochemical
Method: The respective fungicide was dissolved in the solvent of interest so that a supersaturated solution was obtained. The deposit was filtered off. The concentration of the fungicide in the supernatant was determined via quantitative 1H-NMR spectroscopy.

| Compound | Phytotoxicity [%] 10 days after treatment (barley (cultivar Lawina)) | Solubility [%] Fluxapyroxad [1] | Phytotoxicity [%] 10 days after treatment (barley (cultivar Lawina); listed as dimethylpropionamide) |
| --- | --- | --- | --- |
| CCCCCCCC(=O)N(CCCC)CCCC [C8-dibutylamide, N,N-dibutyl-octanamide] | 5% | – | – |
| CCCCN(CCCC)C(=O)CC [Dibutylpropionamide, N,N-dibutyl-propionamide] | 0% | 28% | – |
| CCC(=O)N(CC)CC [Diethylpropionamide, N,N-diethyl-propionamide] | 6% | – | – |
| CCC(=O)N(C)C [Dimethylpropionamide, N,N-dimethyl-propionamide, reference compound] | 43% | – | up to 43% |

— US20170295779A9, “COMPOSITION COMPRISING A PESTICIDE AND AMIDE” (BASF SE, priority 2013, published 2017)
